Test [1] has as its target T1, recombinant human ALK5 (TGF-βR1) protein (Homo sapiens, UniProt P36897).
T1 construct: purchased Life Technologies PR9075A
T1 sequence (P36897 34-503): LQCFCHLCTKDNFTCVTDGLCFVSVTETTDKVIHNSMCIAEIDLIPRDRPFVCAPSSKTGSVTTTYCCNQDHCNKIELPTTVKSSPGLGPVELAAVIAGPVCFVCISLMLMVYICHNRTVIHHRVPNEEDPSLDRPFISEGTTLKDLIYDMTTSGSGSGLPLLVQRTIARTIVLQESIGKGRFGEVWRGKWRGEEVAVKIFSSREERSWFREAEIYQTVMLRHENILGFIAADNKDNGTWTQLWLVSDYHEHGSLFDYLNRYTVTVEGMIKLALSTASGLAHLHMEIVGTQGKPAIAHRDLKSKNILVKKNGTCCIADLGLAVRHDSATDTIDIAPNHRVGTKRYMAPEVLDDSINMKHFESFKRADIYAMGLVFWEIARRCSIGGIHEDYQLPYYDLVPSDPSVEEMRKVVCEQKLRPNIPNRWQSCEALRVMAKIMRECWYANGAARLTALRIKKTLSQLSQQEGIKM
In words: Biochemical ALK5 (TGF-βR1) assay to measure pKi (LANCE Ultra ULight kinase assay). The note with it: apparent pKi from pIC50 by Cheng-Prusoff. In outline:
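Dose range 10 μM–25 pM; enzyme + compound 60 min RT; ATP added (5× stock 125 μM, 2 mM DTT); 60 min 37 °C; stop with EDTA + Eu anti-phospho-Topo IIα Thr1342 Ab; TR-FRET ex 320/340, em 665 nm. 4-param pIC50 → pKi (Cheng-Prusoff).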
Background: Time-resolved FRET reads energy transfer from a long-lived donor to a nearby acceptor.

Test [2] deals with TGF-β-stimulated SMAD3 phosphorylation in BEAS-2B cells. In words: Cellular ALK5 potency assay, inhibition of TGF-β stimulated pSMAD3 formation in BEAS-2B cells. The test is classed as cell-based. The note with it: Homo sapiens, read-out: BEAS2B pIC50 (converted). In outline: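 pSMAD3 was quantified by AlphaLISA in BEAS-2B lysates after 10 ng/mL TGF-β (final) for 30 min. Before stimulation, cells received compound for 1 h at 37° C in supplemented HBSS. Values are pIC50, relative to TGF-β-stimulated cells without compound.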

Setting [3] is: inhibition of TGF-β stimulated pSMAD3 formation, BEAS-2B cells.

Like-named read-outs stand apart in the source and are kept apart here.

Regarding `Cc1cccc(-c2n[nH]cc2-c2ccc3ncc(-c4cncs4)cc3n2)n1` [Compound 190, 5-[6-[3-(6-methyl-2-pyridyl)-1H-pyrazol-4-yl]-1,5-naphthyridin-3-yl]thiazole], the Ki in test [1] (read-out: ALK5 pKi (converted)) is less than 0.0316 nM. The IC50 in test [2] (setting [3]) was less than 20 nM.

Take `Cc1cccc(-c2n[nH]cc2-c2ccc3ncc(-c4ccc[nH]4)cc3n2)n1` [Compound 591, 2-[3-(6-methyl-2-pyridyl)-1H-pyrazol-4-yl]-7-(1H-pyrrol-2-yl)-1,5-naphthyridine]: the Ki in test [1] (read-out: ALK5 pKi (converted)) was less than 0.0316 nM. Besides, in test [2] (setting [3]), the IC50 was less than 20 nM.

With `Cc1cccc(-c2[nH]cnc2-c2ccc3ncc(C4=CCN(C(C)C)C4)cc3n2)n1` [Compound 253, 7-(1-isopropyl-2,5-dihydropyrrol-3-yl)-2-[5-(6-methyl-2-pyridyl)-1H-imidazol-4-yl]-1,5-naphthyridine], the Ki in test [1] (read-out: ALK5 pKi (converted)) was 0.0398 to 0.316 nM. Moreover, the IC50 in test [2] (setting [3]) is 25.1 to 158 nM.

Take `Cc1cccc(-c2[nH]cnc2-c2ccc3ncc(NC(=O)C4CNC4)cc3c2)n1` [Compound 579, N-[6-[5-(6-methyl-2-pyridyl)-1H-imidazol-4-yl]-3-quinolyl]azetidine-3-carboxamide]: the Ki in test [1] (read-out: ALK5 pKi (converted)) was 0.0398 to 0.316 nM. In addition, in test [2] (setting [3]), the IC50 was 1580 to 10000 nM.

Take `Cc1cccc(-c2[nH]cnc2-c2ccc3ncc(-c4cccc(NC5CNC5)n4)cc3c2)n1` [Compound 180, N-(azetidin-3-yl)-6-[6-[5-(6-methyl-2-pyridyl)-1H-imidazol-4-yl]-3-quinolyl]pyridin-2-amine]: in test [1] (read-out: ALK5 pKi (converted)), the Ki is 0.0398 to 0.316 nM. In test [2] (setting [3]), the IC50 is 1580 to 10000 nM.

Take `Cc1cccc(-c2[nH]cnc2-c2ccc3ncc(-c4csc(C(=O)OC[C@@H]5CCCCN5)c4)cc3c2)n1` [Compound 1213, [(2S)-2-piperidyl]methyl 4-[6-[5-(6-methyl-2-pyridyl)-1H-imidazol-4-yl]-3-quinolyl]thiophene-2-carboxylate]: the Ki in test [1] (read-out: ALK5 pKi (converted)) is less than 0.0316 nM. In addition, the IC50 in test [2] (setting [3]) is 25.1 to 158 nM.

Regarding `Cc1cccc(-c2[nH]cnc2-c2ccc3ncc(NCCN4CC(N)C4)cc3c2)n1` [Compound 476, N-[2-(3-aminoazetidin-1-yl)ethyl]-6-[5-(6-methyl-2-pyridyl)-1H-imidazol-4-yl]quinolin-3-amine], in test [1] (read-out: ALK5 pKi (converted)), the Ki was 0.0398 to 0.316 nM. Besides, the IC50 in test [2] (setting [3]) was 25.1 to 158 nM.

For the molecule `Cc1cccc(-c2[nH]ncc2-c2ccc3nccc(C(=O)OCCN4C[C@@H](C)N[C@@H](C)C4)c3c2)n1` [Compound 1176, 2-[(3R,5S)-3,5-dimethylpiperazin-1-yl]ethyl 6-[5-(6-methyl-2-pyridyl)-1H-pyrazol-4-yl]quinoline-4-carboxylate], the Ki in test [1] (read-out: ALK5 pKi (converted)) is 0.0398 to 0.316 nM. The IC50 in test [2] (setting [3]) is 25.1 to 158 nM.

Consider `Cc1nc(-c2n[nH]cc2-c2ccc3ncc(N4CCC(N(C)C)CC4)cc3n2)ccc1F` [Compound 514, 1-[6-[3-(5-fluoro-6-methyl-2-pyridyl)-1H-pyrazol-4-yl]-1,5-naphthyridin-3-yl]-N,N-dimethyl-piperidin-4-amine], for which the Ki in test [1] (read-out: ALK5 pKi (converted)) was 0.0398 to 0.316 nM. The IC50 in test [2] (setting [3]) is 25.1 to 158 nM.

Consider `Cc1cccc(-c2[nH]cnc2-c2ccc3ncc(-c4ccc(C(=O)OC5CNC5)cc4)cc3c2)n1` [Compound 663, azetidin-3-yl 4-[6-[5-(6-methyl-2-pyridyl)-1H-imidazol-4-yl]-3-quinolyl]benzoate], for which, in test [1] (read-out: ALK5 pKi (converted)), the Ki was 0.0398 to 0.316 nM. The IC50 in test [2] (setting [3]) is 25.1 to 158 nM.

Turning to `Cc1cccc(-c2n[nH]cc2-c2ccc3ncc(C4=C[C@H]5CC[C@@H](C4)N5)cc3n2)n1` (racemic) [Compound 161, 2-[3-(6-methyl-2-pyridyl)-1H-pyrazol-4-yl]-7-[rac-(1R,5S)-8-azabicyclo[3.2.1]oct-2-en-3-yl]-1,5-naphthyridine], in test [1] (ALK5 pKi), the Ki lay within 0.0398 to 0.316 nM. Moreover, the IC50 in test [2] (BEAS-2B) was 25.1 to 158 nM.

Consider `Cc1cccc(-c2n[nH]cc2-c2ccc3ncc(-c4cn5c(n4)CN(CCO)CC5)cc3n2)n1` [Compound 198, 2-[2-[6-[3-(6-methyl-2-pyridyl)-1H-pyrazol-4-yl]-1,5-naphthyridin-3-yl]-6,8-dihydro-5H-imidazo[1,2-a]pyrazin-7-yl]ethanol], for which the Ki in test [1] (read-out: ALK5 pKi (converted)) is 0.0398 to 0.316 nM. Also, in test [2] (setting [3]), the IC50 is 25.1 to 158 nM.

Take `Cc1cccc(-c2n[nH]cc2-c2ccc3nccc(CN(C)CCCN4CCOCC4)c3n2)n1` [Compound 853, N-methyl-N-[[6-[3-(6-methyl-2-pyridyl)-1H-pyrazol-4-yl]-1,5-naphthyridin-4-yl]methyl]-3-morpholino-propan-1-amine]: in test [1] (read-out: ALK5 pKi (converted)), the Ki is 0.0398 to 0.316 nM. Moreover, the IC50 in test [2] (setting [3]) was 25.1 to 158 nM.

As to `Cc1cccc(-c2[nH]cnc2-c2ccc3ncc(-c4nccc(C(=O)O)n4)cc3c2)n1` [Compound 1109, 2-[6-[5-(6-methyl-2-pyridyl)-1H-imidazol-4-yl]-3-quinolyl]pyrimidine-4-carboxylic acid], the Ki in test [1] (read-out: ALK5 pKi (converted)) was 0.398 to 3.16 nM. Besides, in test [2] (setting [3]), the IC50 is 1580 to 10000 nM.

On to `Cc1cccc(-c2n[nH]cc2-c2ccc3ncc(C(=O)NCCN4CCOCC4)cc3n2)n1` [Compound 44, 6-[3-(6-methyl-2-pyridyl)-1H-pyrazol-4-yl]-N-(2-morpholinoethyl)-1,5-naphthyridine-3-carboxamide], for which, in test [1] (read-out: ALK5 pKi (converted)), the Ki is less than 0.0316 nM. Also, in test [2] (setting [3]), the IC50 was 25.1 to 158 nM.

Regarding `Cc1nc(-c2n[nH]cc2-c2ccc3ncc(-c4cnn5c4CNCC5)cc3n2)ccc1F` [Compound 185, 2-[3-(5-fluoro-6-methyl-2-pyridyl)-1H-pyrazol-4-yl]-7-(4,5,6,7-tetrahydropyrazolo[1,5-a]pyrazin-3-yl)-1,5-naphthyridine], the Ki in test [1] (read-out: ALK5 pKi (converted)) was 0.0398 to 0.316 nM. Further, in test [2] (setting [3]), the IC50 was less than 20 nM.

With `Cc1cccc(-c2n[nH]cc2-c2ccc3ncc(NCC(C)(C)N4CCN(C(C)C)CC4)cc3n2)n1` [Compound 698, N-[2-(4-isopropylpiperazin-1-yl)-2-methyl-propyl]-6-[3-(6-methyl-2-pyridyl)-1H-pyrazol-4-yl]-1,5-naphthyridin-3-amine], the Ki in test [1] (read-out: ALK5 pKi (converted)) was 0.0398 to 0.316 nM. Moreover, in test [2] (setting [3]), the IC50 is 25.1 to 158 nM.

In the case of `CNCCn1cc(-c2cnc3ccc(-c4c[nH]nc4-c4cccc(C)n4)cc3c2)cn1` [Compound 589, N-methyl-2-[4-[6-[3-(6-methyl-2-pyridyl)-1H-pyrazol-4-yl]-3-quinolyl]pyrazol-1-yl]ethanamine], in test [1] (read-out: ALK5 pKi (converted)), the Ki was less than 0.0316 nM. For the same molecule, the IC50 in test [2] (setting [3]) was less than 20 nM.

In the case of `Cc1cccc(-c2n[nH]cc2-c2ccc3ncc(-c4ccnc(C#N)c4)cc3n2)n1` [Compound 9, 4-[6-[3-(6-methyl-2-pyridyl)-1H-pyrazol-4-yl]-1,5-naphthyridin-3-yl]pyridine-2-carbonitrile], the Ki in test [1] (read-out: ALK5 pKi (converted)) is less than 0.0316 nM. Also, the IC50 in test [2] (setting [3]) was less than 20 nM.

On to `Cc1nc(-c2n[nH]cc2-c2ccc3ncc(-c4[nH]nc5c4CNCC5)cc3n2)ccc1F` [Compound 173, 2-[3-(5-fluoro-6-methyl-2-pyridyl)-1H-pyrazol-4-yl]-7-(4,5,6,7-tetrahydro-2H-pyrazolo[4,3-c]pyridin-3-yl)-1,5-naphthyridine], for which the Ki in test [1] (read-out: ALK5 pKi (converted)) is 0.0398 to 0.316 nM. Besides, the IC50 in test [2] (setting [3]) is 200 to 1260 nM.

In the case of `Cc1cccc(-c2[nH]cnc2-c2ccc3ncc(-c4csc(C(=O)O[C@H]5C[C@@H](N)C5)c4)cc3c2)n1` [Compound 1243, (3-aminocyclobutyl) 4-[6-[5-(6-methyl-2-pyridyl)-1H-imidazol-4-yl]-3-quinolyl]thiophene-2-carboxylate], in test [1] (read-out: ALK5 pKi (converted)), the Ki was less than 0.0316 nM. The IC50 in test [2] (setting [3]) was 25.1 to 158 nM.

As to `Cc1cccc(-c2[nH]cnc2-c2ccc3ncc(NC(=O)C4CN5CCN4CC5)cc3c2)n1` (stereo not shown) [Compound 406, N-[6-[5-(6-methyl-2-pyridyl)-1H-imidazol-4-yl]-3-quinolyl]-1,4-diazabicyclo[2.2.2]octane-2-carboxamide], the Ki in test [1] (read-out: ALK5 pKi (converted)) was 0.0398 to 0.316 nM. In addition, the IC50 in test [2] (setting [3]) is 200 to 1260 nM.

In the case of `Cc1cccc(-c2c(-c3ccc4ncc(NCCN5CCN(C(C)C)CC5)cc4c3)nnn2Cc2ccccc2)n1` [Compound 351, 6-[1-benzyl-5-(6-methyl-2-pyridyl)triazol-4-yl]-N-[2-(4-isopropylpiperazin-1-yl)ethyl]quinolin-3-amine], the Ki in test [1] (read-out: ALK5 pKi (converted)) was 3.98 to 31.6 nM. In addition, the IC50 in test [2] (setting [3]) is 200 to 1260 nM.

`CNC1CCN(c2cnc3ccc(-c4c[nH]nc4-c4ccc(F)c(C)n4)nc3c2)CC1` [Compound 264, 1-[6-[3-(5-fluoro-6-methyl-2-pyridyl)-1H-pyrazol-4-yl]-1,5-naphthyridin-3-yl]-N-methyl-piperidin-4-amine]: the Ki in test [1] (read-out: ALK5 pKi (converted)) was less than 0.0316 nM. Further, in test [2] (setting [3]), the IC50 was 25.1 to 158 nM.

For `Cc1cccc(-c2[nH]ncc2-c2ccc3ncc(C(=O)OCCC4CCNC4)cc3c2)n1` (stereo not shown) [Compound 1164, 2-pyrrolidin-3-ylethyl 6-[5-(6-methyl-2-pyridyl)-1H-pyrazol-4-yl]quinoline-3-carboxylate], the Ki in test [1] (read-out: ALK5 pKi (converted)) is 0.0398 to 0.316 nM. In addition, in test [2] (setting [3]), the IC50 was 25.1 to 158 nM.

For `COC(=O)c1ccnc2ccc(-c3cn[nH]c3-c3cccc(C)n3)cc12` [Compound 1061, methyl 6-[5-(6-methyl-2-pyridyl)-1H-pyrazol-4-yl]quinoline-4-carboxylate], the Ki in test [1] (read-out: ALK5 pKi (converted)) is 0.0398 to 0.316 nM. The IC50 in test [2] (setting [3]) is 25.1 to 158 nM.

Source of the values: patent US11590116B2 (THERAVANCE BIOPHARMA R&D IP, LLC, priority 2019, dated 2023).
